Patent publication US11767305B2, “Advantageous benzofuran compositions for mental disorders or enhancement” (Tactogen Inc, priority 2020, dated 2023)
Like-named read-outs stand apart in the source and are kept apart here.

Key:
[1] = target: human 5-HT transporter (hSERT) (Homo sapiens (Human), UniProt P31645); experiment: Human serotonin transporter  assay ([3H]imipramine radioligand, CHO cells); assay type: binding; conditions: for Ki: Cheng Prusoff equation
Experimental: Benzofuran derivatives were evaluated for inhibiting the human 5-HT transporter (hSERT) as expressed in CHO cells using an antagonist radioligand assay (Tatsumi, M. et al. (1999), Eur. J Pharmacol., 368: 277-283). […] Test compounds were assayed in three trials at […], and 0.94868 μM.

[2] = target: T1, serotonin (5-HT) transporter (SERT) (Rattus norvegicus (Rat), UniProt P31652); experiment: Rat synaptosome SERT [3H]5-HT release assay; conditions: 5 nM [3H]5-HT
[3] = target: T1, serotonin (5-HT) transporter (SERT); experiment: Rat synaptosome SERT [3H]5-HT uptake inhibition assay; conditions: 5 nM [3H]5-HT
5-HT1BR = 5-HT1BR (Homo sapiens (Human), UniProt P28222); experiment: 5-HT1BR cAMP secondary messenger agonist assay (HitHunter, CHO-K1); assay type: cell-based
Description: The 5-HT1BR cAMP secondary messenger agonist assay used a panel of CHO-K1 cell lines stably expressing non-tagged GPCRs that endogenously signal through cAMP. Hit Hunter® cAMP assays monitored the activation of a GPCR via Gi and Gs secondary messenger signaling in a homogenous, non-imaging assay format using DiscoverX Enzyme Fragment Complementation (EFC) with β-galactosidase as the functional endpoint.
The enzyme was split into two complementary portions: Enzyme Acceptor (EA) and Enzyme Donor (ED). Exogenously introduced ED fused to cAMP (ED-cAMP) competed with endogenously generated cAMP for binding to an anti-cAMP-specific antibody. Active β-galactosidase was formed by complementation of exogenous EA to any unbound ED-cAMP.
Cell lines were expanded from freezer stocks according to standard procedures. Cells were seeded in a total volume of 20 μL into white walled, 384-well microplates and incubated at 37° C. for the appropriate time prior to testing. cAMP modulation was determined using the DiscoverX HitHunter cAMP XS+ assay.
For agonist determination, cells were incubated with sample (in the presence of EC80 forskolin to induce response if measuring Gi secondary messenger signaling). Media was aspirated from cells and replaced with 15 μL 2:1 HBSS/10 mM Hepes:cAMP XS+ Ab reagent. Intermediate dilution of sample stocks was performed to generate 4×sample in assay buffer (optionally containing 4×EC80 forskolin). 5 μL of 4×sample was added to cells and incubated at 37° C. or room temperature for 30 or 60 minutes, as appropriate. Final assay vehicle concentration was 1%.

[4] = target: Nicotinic Acetylcholine Receptor α4β2 (nAchRa4/b2) (Homo sapiens (Human), UniProt P17787+P43681); experiment: Nicotinic acetylcholine receptor α4β2 ion channel blocking assay; assay type: cell-based
Experimental: Cell lines were expanded from freezer stocks according to standard procedures. Cells were seeded in a total volume of 20 μL into black-walled, clear-bottom, Poly-D-lysine coated 384-well microplates and incubated at 37° C. for the appropriate time prior to testing.
Assays were performed in 1×Dye Loading Buffer consisting of 1×Dye, and 2.5 mM freshly-prepared Probenecid when applicable.
Test compounds were assayed at 10 concentrations with the highest concentration either 30 or 10 μM and subsequent concentrations using a 0.33 dilution factor.
Prior to testing, cells were loaded with dye then incubated for 30-60 minutes at 37° C. For antagonist determination, cells were pre-incubated with sample. Dihydro-β-erythroidine was used as a positive control. Intermediate dilution of sample stocks was performed to generate 2-5×sample in assay buffer.
After dye loading, cells were moved from the incubator and 10-25 μL 2-5×sample was added to cells in the presence of EC80 agonist when appropriate. Cells were incubated for 30 minutes at room temperature in the dark to equilibrate plate temperature. Vehicle concentration was 1%.
Compound activity was measured on a FLIPRTetra(MDS) and analyzed using CBIS data analysis suite (ChemInnovation, CA). Percentage inhibition was calculated using the following formula: % Inhibition=100%×(1−(mean RLU of test sample−mean RLU of vehicle control)/(mean RLU of EC80 control−mean RLU of vehicle control)).

MAO-A = MAO-A (Homo sapiens (Human), UniProt P21397); experiment: MAO-A inhibition assay (kynuramine); assay type: biochemical
Experimental: MAO-A and test compounds were preincubated at 37° C. for 15 minutes before substrate addition. Test compounds were assayed at 10 concentrations with the highest concentration either 30 or 10 μM and subsequent concentrations using a 0.33 dilution factor. The reaction was initiated by addition of kynuramine and incubated at 37° C. for 30 minutes. The reaction was terminated by addition of NaOH. The amount of 4-hydroquioline formed was determined through spectrofluorimetric readout with the emission detection at 380 nm and excitation wavelength 310 nm.

DAT = DAT (Homo sapiens (Human), UniProt Q01959); experiment: hDAT release assay in CHO cells ([3H]dopamine); conditions: EC50 DAT (Mean ± SEM, nM), CHO cells expressing hDAT
SERT = SERT (Homo sapiens (Human), UniProt P31645); experiment: hSERT release assay in CHO cells ([3H]serotonin); conditions: EC50 SERT (Mean ± SEM, nM), CHO cells expressing hSERT
healthy human individual = experiment: Human effects of non-racemic 5-MAPB, self-reported ratings (Good, Bad, Open); assay type: in vivo; conditions: averaged from all sessions, 54 mg 5-MAPB HCl oral in two halves
Experimental: The effects of non-racemic 5-MAPB HCl were tested by a healthy human individual at four different ratios of enantiomers plus the racemate as a control: • 54 mg S and 0 mg R (100% S) • 47 mg Sand 7 mg R (87% S) • 36 mg S and 18 mg R (67% S) • 27 mg S and 27 mg R (50% S) • 7 mg S and 47 mg R (13% S)
Two trials were carried out at each ratio, except for 13% S where only one was conducted. Trials were at least 72 h apart.
5-MAPB HCl was dissolved in 1.5 ml distilled water and consumed in two halves, separated by 1 hour. Starting at 3 hours after administration, tablets of 250 mg ascorbic acid and capsules of 300 mg alpha lipoic acid were taken ad libitum (approximately every hour for a total of 4 administrations).
Measurements were made approximately every 2 hours until post 6 hours and the maximum ratings per session were analyzed. Additionally, an index of good drug effects versus emotional openness, calculated as (Open−Good)/(200, the theoretical maximum of Open+Good), was constructed at each time point and the maximum analyzed. In healthy volunteers, Good Ratings can be considered a predictor of abuse liability. Accordingly, this index can be used as an indicator of the balance of a therapeutic effect (emotional openness) vs abuse liability.
Historic data of two trials 50 mg RS-5-MAPB Cl from the same individual were also included in the analysis for comparison.

[5] = Solubility assessment in FaSSIF V2 media; conditions: room temp, scale up samples of racemic 5-MAPB salts
[6] = 2 nM [3H]imipramine, read-out: SERT IC50
[7] = read-out: [3H]5-HT release via SERT EC50
[8] = read-out: Inhibition of [3H]5-HT Uptake at SERT IC50
[9] = SERT IC50 (μM), 2 nM [3H]imipramine
[10] = [3H]5-HT release via SERT EC50 (nM)
[11] = Inhibition of [3H]5-HT Uptake at SERT IC50 (nM)
[12] = IC50 (appeared close to), lowest concentration too high for accurate estimate

Chain of MAO-A (P21397 whole entry, looked up, species assumed): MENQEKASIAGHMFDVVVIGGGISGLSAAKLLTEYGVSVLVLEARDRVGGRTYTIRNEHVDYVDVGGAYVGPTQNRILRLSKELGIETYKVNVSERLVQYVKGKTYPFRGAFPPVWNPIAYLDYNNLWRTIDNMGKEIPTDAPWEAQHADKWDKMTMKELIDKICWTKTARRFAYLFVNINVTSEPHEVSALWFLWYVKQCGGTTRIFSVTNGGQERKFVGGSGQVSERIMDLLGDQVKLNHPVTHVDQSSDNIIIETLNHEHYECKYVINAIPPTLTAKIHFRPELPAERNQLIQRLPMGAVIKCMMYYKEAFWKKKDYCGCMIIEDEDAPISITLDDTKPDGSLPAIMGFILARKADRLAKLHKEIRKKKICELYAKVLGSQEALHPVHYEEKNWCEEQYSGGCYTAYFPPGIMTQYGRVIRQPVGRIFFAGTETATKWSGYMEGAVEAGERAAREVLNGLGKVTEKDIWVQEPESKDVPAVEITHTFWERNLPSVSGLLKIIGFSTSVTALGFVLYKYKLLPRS
Chain of Nicotinic Acetylcholine Receptor α4β2 (nAchRa4/b2) (P43681 29-627 limits assumed): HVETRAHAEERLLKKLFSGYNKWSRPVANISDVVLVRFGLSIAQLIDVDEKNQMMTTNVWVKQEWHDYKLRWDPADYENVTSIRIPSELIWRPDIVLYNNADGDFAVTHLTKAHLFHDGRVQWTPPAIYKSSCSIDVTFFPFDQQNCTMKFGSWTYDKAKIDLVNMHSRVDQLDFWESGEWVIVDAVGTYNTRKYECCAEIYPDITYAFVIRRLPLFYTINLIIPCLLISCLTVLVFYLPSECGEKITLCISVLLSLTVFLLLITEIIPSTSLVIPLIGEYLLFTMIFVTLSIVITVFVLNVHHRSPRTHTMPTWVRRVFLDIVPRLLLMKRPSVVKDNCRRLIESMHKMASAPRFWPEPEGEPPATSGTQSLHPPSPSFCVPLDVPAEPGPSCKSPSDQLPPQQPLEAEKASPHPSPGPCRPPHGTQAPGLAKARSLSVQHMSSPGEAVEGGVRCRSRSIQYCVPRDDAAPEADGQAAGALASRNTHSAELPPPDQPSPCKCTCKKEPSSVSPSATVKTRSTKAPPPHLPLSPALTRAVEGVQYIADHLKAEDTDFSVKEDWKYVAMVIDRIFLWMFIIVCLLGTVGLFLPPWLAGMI
Chain of Nicotinic Acetylcholine Receptor α4β2 (nAchRa4/b2) (P17787 26-502 limits assumed): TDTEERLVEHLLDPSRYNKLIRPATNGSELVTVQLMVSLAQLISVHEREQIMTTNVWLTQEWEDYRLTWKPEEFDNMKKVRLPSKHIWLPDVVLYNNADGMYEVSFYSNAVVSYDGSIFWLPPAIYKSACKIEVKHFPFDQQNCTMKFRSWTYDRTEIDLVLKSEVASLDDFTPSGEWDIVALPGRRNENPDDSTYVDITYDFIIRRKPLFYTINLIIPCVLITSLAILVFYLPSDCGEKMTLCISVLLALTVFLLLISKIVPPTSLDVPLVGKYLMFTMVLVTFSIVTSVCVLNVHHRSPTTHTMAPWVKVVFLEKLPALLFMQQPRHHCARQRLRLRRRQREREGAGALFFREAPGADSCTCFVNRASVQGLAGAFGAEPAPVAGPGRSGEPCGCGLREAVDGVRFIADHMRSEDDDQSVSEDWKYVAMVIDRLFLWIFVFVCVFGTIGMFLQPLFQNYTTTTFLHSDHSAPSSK

Molecule	Hill Coef. (5-HT1BR)	EC50 (5-HT1BR; 5-HT1BR EC50 (μM)) [µM]	IC50 [1, 9] [µM]	EC50 [2, 10] [nM]	IC50 [3, 11] [nM]	further results
1-(benzofuran-6-yl)-N-methylbutan-2-amine [Compound R-6-MBPB]	–	–	–	–	–	IC50 [1, 6]: 5.7 µM; Ki ([1]; read-out: SERT Ki): 2.6 µM; EC50 [2, 7]: 172 ± 82.2 nM; IC50 [3, 8]: 702 ± 262 nM
1-(benzofuran-6-yl)-N-methylbutan-2-amine [Compound S-6-MBPB]	–	–	–	–	–	IC50 [1, 6]: 2.7 µM; Ki ([1]; read-out: SERT Ki): 1.2 µM; EC50 [2, 7]: 54.1 ± 33.9 nM; IC50 [3, 8]: 217 ± 45.8 nM
CNC(C)C(=O)c1ccc2occc2c1 (single isomer, unassigned; (+)) [(+)-BK-5-MAPB, 1-(benzofuran-5-yl)-2-(methylamino) propan-1-one]	1.05	3.07	38	439 ± 72.5	2090 ± 151	Ki ([1]; SERT Ki (μM)): 17 µM
CNC(C)C(=O)c1ccc2ccoc2c1 (single isomer, unassigned; (+)) [(+)-BK-6-MAPB, 1-(benzofuran-6-yl)-2-(methylamino) propan-1-one]	–	> 10	–	1280 ± 268	5470 ± 424	–
CNC(C)C(=O)c1ccc2occc2c1 (single isomer, unassigned; (-)) [(−)-BK-5-MAPB, 1-(benzofuran-5-yl)-2-(methylamino) propan-1-one]	1.5	0.0777	6.9	80 ± 13.7	284 ± 11.9	Ki ([1]; SERT Ki (μM)): 3.2 µM
CNC(C)C(=O)c1ccc2ccoc2c1 (single isomer, unassigned; (-)) [(−)-BK-6-MAPB, 1-(benzofuran-6-yl)-2-(methylamino) propan-1-one]	0.8339	0.288	12	72.2 ± 16.6	275 ± 13	Ki ([1]; SERT Ki (μM)): 5.4 µM
CC[C@H](Cc1ccc2occc2c1)NC (stereo in doubt) [Compound R-5-MBPB, 1-(benzofuran-5-yl)-N-methylbutan-2-amine]	–	–	–	49.5 ± 27.1	212 ± 36.2	IC50 [4]: 6330 nM; IC50 [1, 12]: ~0.949 µM
CC[C@@H](Cc1ccc2occc2c1)NC (stereo in doubt) [Compound S-5-MBPB, 1-(benzofuran-5-yl)-N-methylbutan-2-amine]	–	–	–	31.2 ± 14.3	124 ± 35.8	IC50 (MAO-A): 2660 nM; IC50 [4]: 9980 nM; IC50 [1, 12]: ~0.0949 µM
CN[C@H](C)Cc1ccc2occc2c1 [75% R-5-MAPB]	–	–	–	–	–	EC50 (DAT): 794 ± 182 nM; EC50 (SERT): 122 ± 13 nM
CN[C@@H](C)Cc1ccc2occc2c1 [75% S-5-MAPB]	–	–	–	–	–	EC50 (DAT): 632 ± 113 nM; EC50 (SERT): 80 ± 7 nM
CN[C@@H](C)Cc1ccc2occc2c1 [100% S-5-MAPB]	–	–	–	–	–	Bad (healthy human individual; maximum 0-100 rating of bad drug effects): 1%; Open (healthy human individual; maximum 0-100 rating of emotional openness): 65%; Good (healthy human individual; maximum 0-100 rating of good drug effects): 55%
CN[C@@H](C)Cc1ccc2occc2c1 [Compound S-5-MAPB, (S)-1-(benzofuran-5-yl)-N-methylpropan-2-amine]	1.08	0.161	3.4	13 ± 1.2	60.4 ± 2.8	EC50 (5-HT1BR; 5HT1B Agonist (μM)): 0.16 µM; IC50 (MAO-A): 1290 nM; EC50 (DAT): 258 ± 99 nM; EC50 (SERT): 67 ± 15 nM
CN[C@@H](C)Cc1ccc2ccoc2c1 [Compound S-6-MAPB, (S)-1-(benzofuran-6-yl)-N-methylpropan-2-amine]	1.21	0.102	6.7	20.6 ± 2.7	90.9 ± 5.9	EC50 (5-HT1BR; 5HT1B Agonist (μM)): 0.1 µM; IC50 (MAO-A): 5390 nM
CNC(C)Cc1ccc2occc2c1.Cl (stereo not shown) [Pattern 1A, 5-MAPB hydrochloride]	–	–	–	–	–	Solubility [5]: >10000 µg/mL
Br.CNC(C)Cc1ccc2occc2c1 (stereo not shown) [Pattern 2B]	–	–	–	–	–	Solubility [5]: >10000 µg/mL
CNC(C)Cc1ccc2occc2c1.O=C(O)/C=C\C(=O)O (stereo not shown) [Pattern 10A]	–	–	–	–	–	Solubility [5]: >10000 µg/mL
